Where a SMILES comes first, the peptide text is derived from it. The star is where a group is joined. Cbz = O=C(OCc1ccccc1)*
What was measured:
Type in all cases: cell-based, human
[1] = system: DLD-1 Ras Mut cells vs DLD-1 Ras WT cells; assay: Competition assay, GFP-labeled Ras Mut vs Ras WT cells, FACS; conditions: for Viability/fitness of Ras Mut cells after transient treatment: DLD-1, 24 hours treatment, drug washed out, 3 additional days before FACS; for Fitness of Ras Mut cells relative to Ras WT cells (synthetic lethality with mutant Ras): DLD-1 isogenic pair, drug present for 4-5 days
Method: E. Schematic of the competition assay used to validate shRNAs from the primary screen. Ras Mut cells expressing GFP and Ras WT cells were mixed and co-infected with the same retroviral shRNA. The Mut to WT cell ratio at the end of the experiment is measured by FACS. The percentage of Ras Mut cells in the mixture infected with a candidate RSL shRNA was normalized against that of a control shRNA targeting firefly luciferase (FF) within the same experiment to generate a normalized fitness score for the Ras Mut cells. Variations of this assay are also used to test the effect of siRNAs and chemical inhibitors.
Next, a competition assay was devised to test the reproducibility of candidate RSL shRNAs from the primary screen (Torrance et al., 2001; Smogorzewska et al., 2007). Individual shRNAs were packaged into retroviruses and infected into a 50:50 mixture of GFP+ DLD-1 Ras Mut cells and GFP (colorless) DLD-1 Ras WT cells. The relative ratio of Ras Mut versus WT cells at ˜7 days post shRNA infection was analyzed by FACS and compared to that of a mixed population infected with a negative control shRNA targeting luciferase (FIG. 8E). […] To rule out cell-line specific effect of candidate RSL shRNAs, candidates were tested using the competition assay in a second isogenic pair of colorectal cancer cell lines: HCT116 KRAS WT/G13D and HCT116 KRAS WT/−, which were derived with a similar method as the DLD-1 isogenic pair (Shirasawa et al., 1993; Torrance et al., 2001).
The competition assay used to test candidate genes from the screen was modified from a previous protocol (Torrance et al., 2001; Smogorzewska et al., 2007) and was carried out in 96-well plates in independent triplicates. For this assay, 1,000 each of GFP-labeled Ras Mut and unlabeled Ras WT cells were seeded in each well. For retroviral shRNA infection, cells were infected at an MOI of 1-5, selected for 3 days with puromycin and propagated for an additional 4-5 days before analyzed by FACS. An shRNA targeting firefly luciferase (shRNA-FF) was used as the negative control. For siRNA transfection, cells were transfected with siGenome siRNAs (Dharmacon) using Lipofectamine RNAiMAX (InVitrogen) and analyzed by FACS 5-6 days post transfection An siRNA targeting luciferase (Luc) was used as the negative control. […] Untreated wells were used as negative controls. To obtain normalized fitness of Ras Mut cells that can be compared across experiments, the percentage of Ras Mut cells in each sample was normalized to that in the control samples of that experiment.

[2] = system: DLD-1 PI3K Mut cells vs PI3K WT cells; assay: Competition assay, PI3K Mut vs PI3K WT cells; conditions: DLD-1 isogenic for the PI3K oncogene
[3] = system: HCT116 PI3K Mut cells vs PI3K WT cells; assay: Competition assay, PI3K Mut vs PI3K WT cells; conditions: HCT116 isogenic for the PI3K oncogene
[4] = system: DLD-1 Ras Mut and Ras WT cells; assay: Cell cycle and mitotic stage analysis (FACS, phospho-H3 Ser10, microscopy); conditions: for G2/M arrest, Ras Mut vs Ras WT cells: synthetic lethal concentration of drug; for Prometaphase arrest of mitotic cells: DLD-1 Ras Mut vs Ras WT; for Completion of mitosis (mitotic exit) after nocodazole release: BI-2536 for 2 hours
Method: (§1) For cell cycle analysis, cells were ethanol fixed and stained with PI and analyzed using a BD LSR II FACS analyzer (BD Bioscience). Data analysis was carried out with BD FACS Diva and FlowJo softwares. Cell cycle synchronization by double thymidine block was based on a previous protocol (Steegmaier et al., 2007). Briefly, cells were arrested with two rounds of 20-hour thymidine (2.5 mM) treatment approximately 12 hours apart and released into mitosis. […] For one-step arrest in G2/M or in prometaphase, cells were treated overnight with either RO-3306 (10 μM) or the Eg5 kinesin inhibitor monastrol (100 μM), respectively. For mitotic entry experiments, cells were synchronized in RO-3306 (10 uM) overnight prior to release. For mitotic release experiments, cells were released from overnight synchronization in RO-3306 (10 uM) into nocodazole ([…]) for 4 hours and mitotic cells were collected by mitotic shake-off. Cells were then release by washing out the nocodazole. For the analysis of lagging chromosomes and mitotic index by microscopy, cells seeded onto coverslips were arrested in mitosis with 100 μM monastrol for 16 hours. Cells were washed and released into fresh media and were fixed at ten minute intervals for two hours in PHEM buffer+2% formaldehyde+0.5% triton-X100. Cells were immunostained with DAPI to visualized DNA and antibodies to phospho-histone H3 Ser10 (pH3S10) and to α-tubulin to identify mitotic cells at different stages. Independent triplicates with >100 cells per replicate were analyzed. For measuring mitotic index by FACS, cells were trypsinized, fixed with ethanol and stained with PI and pH3S10 antibody.

[5] = system: HCT116 Ras Mut cells vs HCT116 Ras WT cells; assay: Competition assay, GFP-labeled Ras Mut vs Ras WT cells, FACS; conditions: HCT116 isogenic pair; drug present for 4-5 days
Method: Next, a competition assay was devised to test the reproducibility of candidate RSL shRNAs from the primary screen (Torrance et al., 2001; Smogorzewska et al., 2007). Individual shRNAs were packaged into retroviruses and infected into a 50:50 mixture of GFP+ DLD-1 Ras Mut cells and GFP (colorless) DLD-1 Ras WT cells. The relative ratio of Ras Mut versus WT cells at ˜7 days post shRNA infection was analyzed by FACS and compared to that of a mixed population infected with a negative control shRNA targeting luciferase (FIG. 8E). […] Without wishing to be bound by theory, a possible cause for the higher false positive rate in the primary screen might due to the fact that for the synthetic lethal analysis the difference between two microarray datasets is extracted and coupled with the fact that the secondary assay is much shorter than the original discovery assay. To rule out cell-line specific effect of candidate RSL shRNAs, candidates were tested using the competition assay in a second isogenic pair of colorectal cancer cell lines: HCT116 KRAS WT/G13D and HCT116 KRAS WT/−, which were derived with a similar method as the DLD-1 isogenic pair (Shirasawa et al., 1993; Torrance et al., 2001).
The competition assay used to test candidate genes from the screen was modified from a previous protocol (Torrance et al., 2001; Smogorzewska et al., 2007) and was carried out in 96-well plates in independent triplicates. For this assay, 1,000 each of GFP-labeled Ras Mut and unlabeled Ras WT cells were seeded in each well. For retroviral shRNA infection, cells were infected at an MOI of 1-5, selected for 3 days with puromycin and propagated for an additional 4-5 days before analyzed by FACS. An shRNA targeting firefly luciferase (shRNA-FF) was used as the negative control. For siRNA transfection, cells were transfected with siGenome siRNAs (Dharmacon) using Lipofectamine RNAiMAX (InVitrogen) and analyzed by FACS 5-6 days post transfection An siRNA targeting luciferase (Luc) was used as the negative control. For drug treatment, cells were treated with drugs for 4-5 days prior to FACS analysis. Untreated wells were used as negative controls. To obtain normalized fitness of Ras Mut cells that can be compared across experiments, the percentage of Ras Mut cells in each sample was normalized to that in the control samples of that experiment.

[6] = system: HCT116 Ras Mut and Ras WT cells
Method: as §1, with “Cells were immunostained with DAPI to visualized DNA and antibodies to phospho-histone H3 Ser10 (pH3S10) and to α-tubulin to identify mitotic cells at different stages.” left out, “For measuring mitotic index by FACS, cells were trypsinized, fixed with ethanol and stained with PI and pH3S10 antibody.” left out

[7] = system: DLD-1 Ras Mut cells; assay: CellTiter GLO cell viability assay; conditions: DLD-1 Ras Mut vs WT measured independently
Method: The DLD-1 and HCT116 isogenic cells were kind gifts from Dr. Bert Vogelstein (Johns Hopkins University School of Medicine) and were maintained in McCoy's 5A media supplemented with 10% FBS and antibiotics. For proliferation assays, 10,000 cells were seeded in each well of a 24-well plate and cell number was measured using CellTiterGLO (Promega). For adherent colony assays, 1000 cells were seeded in each well of a 6-well plate and colonies were counted 10 days later by Coomassie staining. For anchorage independent colony assays, 1000 cells were seeded in each well of a 6-well plate in media containing 0.35% low-melting point agarose and colonies were counted 3 weeks later by crystal violet staining. The PCR primers used to amplify HH barcodes from genomic DNA samples are JH353F 5′-[…]-3′ and HHR2L 5′-[…]-3′. […] Paclitaxel, nocodazole, MG132 and monastrol were from Sigma-Aldrich. RO-3306 was from EMD Calbiochem. Bortezomib was from LC Laboratories. Rabbit antibody against phospho-PLK1 T210 was from Abcam. Rabbit phosphoH3-S10 antibody was from Covance. Mouse antibodies against PLK1, K-Ras and tubulin were from Santa Cruz Biotechnologies. Rabbit anti-COPS4 antibody was from Bethyl Laboratories.

Compound | Viability/fitness of Ras Mut cells after transient treatment [1] | Fitness of Ras Mut cells relative to Ras WT cells (synthetic lethality with mutant Ras) [1] | Fitness of PI3K Mut cells vs PI3K WT cells [2] | Fitness of PI3K Mut cells vs PI3K WT cells [3] | G2/M arrest, Ras Mut vs Ras WT cells ([4]; DLD-1) | Prometaphase arrest of mitotic cells [4] | Fitness of Ras Mut cells relative to Ras WT cells (synthetic lethality with mutant Ras) [5] | Cell cycle accumulation of Ras Mut cells by FACS [6] | Concentration at which the synthetic lethal effect is strongest ([1]; DLD-1 cells) | Toxicity by CellTiter GLO cell viability [7] | G2/M accumulation, cell cycle distribution ([4]; DLD-1, 25 nM or 50 nM BI-2536 for one day) | Sub-G1 population (cell death) ([4]; DLD-1, prolonged treatment with BI-2536 (25 nM) for 2 days) | Completion of mitosis (mitotic exit) after nocodazole release ([4]; DLD-1 Ras Mut cells) | Completion of mitosis (mitotic exit) after nocodazole release ([4]; DLD-1 Ras WT cells) | Mitotic entry after release from RO-3306 into nocodazole ([4]; DLD-1 Ras WT or Ras Mut, synthetic lethal concentration of BI-2536, 1 hour)
CC(=O)O[C@H]1C(=O)[C@@]2(C)[C@H]([C@H](OC(=O)c3ccccc3)[C@]3(O)C[C@H](OC(=O)[C@H](O)[C@@H](NC(=O)c4ccccc4)c4ccccc4)C(C)=C1C3(C)C)[C@]1(OC(C)=O)CO[C@@H]1C[C@@H]2O [paclitaxel] | sufficient to selectively impair the viability of Ras Mut cells | increased sensitivity | more resistant to these inhibitors relative to DLD-1 PI3K WT cells | very little difference | strong G2/M arrest in Ras Mut cells but not in Ras WT cells | striking pro-metaphase block in the Ras mutant cells | increased sensitivity |  |  |  |  |  |  |  | 
COC(=O)Nc1nc2ccc(C(=O)c3cccs3)cc2[nH]1 [nocodazole] |  | no synthetic lethality with mutant Ras |  |  |  |  | no synthetic lethality with mutant Ras |  |  |  |  |  |  |  | 
CC(C)C[C@H](NC(=O)[C@H](Cc1ccccc1)NC(=O)c1cnccn1)B(O)O [bortezomib] | sufficient to selectively impair the viability of Ras Mut cells | selectively decreased the fitness of DLD-1 Ras Mut cells in a dose dependent fashion | more resistant to these inhibitors relative to DLD-1 PI3K WT cells | very little difference | more sensitive | more profound prometaphase block of the Ras Mut cells | selectively decrease the fitness of HCT116 Ras Mut cells | preferentially induce the accumulation of Ras Mut HCT116 cells |  |  |  |  |  |  | 
CC[C@@H]1C(=O)N(C)c2cnc(Nc3ccc(C(=O)NC4CCN(C)CC4)cc3OC)nc2N1C1CCCC1 [BI-2536] | sufficient to selectively impair the viability of Ras Mut cells |  | more resistant to these inhibitors relative to DLD-1 PI3K WT cells | very little difference |  | strong block of Ras Mut cells in prometaphase |  |  | approximately 25 nM | enhanced toxicity in DLD-1 Ras Mut cells | Ras Mut cells show a profound G2/M accumulation | elevated sub-G1 population in Ras Mut cells | profound delay in mitotic exit in Ras Mut cells | minimal effect on Ras WT cells | unaffected
N#CC(=C(/N)Sc1ccccc1N)/C(C#N)=C(\N)Sc1ccccc1N [U0126] |  | At no concentration of these drugs was selective toxicity towards Ras Mut cells compared to Ras WT cells observed |  |  |  |  |  |  |  |  |  |  |  |  | 
CC(C)C[C@@H](C=O)NC(=O)[C@H](CC(C)C)NC(=O)[C@H](CC(C)C)NC(=O)OCc1ccccc1 [MG132] (Cbz-Leu-Leu-Leu-aldehyde) | sufficient to selectively impair the viability of Ras Mut cells | selectively decreased the fitness of DLD-1 Ras Mut cells in a dose dependent fashion | more resistant to these inhibitors relative to DLD-1 PI3K WT cells | very little difference | more sensitive | more profound prometaphase block of the Ras Mut cells | selectively decrease the fitness of HCT116 Ras Mut cells | preferentially induce the accumulation of Ras Mut HCT116 cells |  |  |  |  |  |  | 
